Assay results reported in BindingDB's records for doi:10.1016/S0960-894X(00)80413-8 (1992).
pIC50: −log10 of the molar value.

Biological target: Ribose-phosphate pyrophosphokinase (Escherichia coli) (UniProt P0A717)
Experiment: Inhibitory concentration against Escherichia coli Pyrophosphate Synthetase (PRPP)

Chain of Ribose-phosphate pyrophosphokinase (Escherichia coli) (P0A717 whole entry, looked up): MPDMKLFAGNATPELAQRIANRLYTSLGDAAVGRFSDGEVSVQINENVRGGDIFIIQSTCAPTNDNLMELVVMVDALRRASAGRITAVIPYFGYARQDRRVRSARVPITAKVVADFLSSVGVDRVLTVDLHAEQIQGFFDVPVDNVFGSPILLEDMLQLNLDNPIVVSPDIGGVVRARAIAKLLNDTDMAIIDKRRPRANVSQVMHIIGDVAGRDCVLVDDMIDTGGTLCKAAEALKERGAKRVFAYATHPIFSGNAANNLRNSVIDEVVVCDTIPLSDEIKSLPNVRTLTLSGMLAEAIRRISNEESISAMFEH

| Structure (SMILES) | pIC50 |
| --- | --- |
| Nc1ncnc2c1ncn2[C@H]1CC[C@@H](CC(F)(F)P(=O)(O)O)C1 [{2-[(1R,3S)-3-(6-Amino-purin-9-yl)-cyclopentyl]-1,1-difluoro-ethyl}-phosphonic acid] | 3.00 |
| Nc1ncnc2c1ncn2[C@H]1CC[C@@H](CCOP(=O)(O)O)C1 [Phosphoric acid mono-{2-[(1R,3S)-3-(6-amino-purin-9-yl)-cyclopentyl]-ethyl} ester] | 3.22 |
| Nc1ncnc2c1ncn2CCOCP(=O)(O)O [9-[2-phosphonomethoxyethyl]adenine] | 2.49 |
| Nc1ncnc2c1ncn2[C@@H]1O[C@H](COP(=O)(O)O)[C@H](O)[C@@H]1O [Phosphoric acid mono-[(2R,3R,4S,5R)-5-(6-amino-purin-9-yl)-3,4-dihydroxy-tetrahydro-furan-2-ylmethyl] ester] | 2.29 |
